Test results taken from article PMC6151865, “Targeting protein biotinylation enhances tuberculosis chemotherapy” (Science Translational Medicine, 2018).
Entries after “also recorded” stand apart in the source; their conditions may differ.

How the values were obtained:
[1] = system: Mtb mutant bioA TetON-1 strain; format: cell-based, Mycobacterium tuberculosis
[2] = system: Mtb carrying an Rv3406 overexpression plasmid (pGMEH-Ptb38-rv3406); format: cell-based, Mycobacterium tuberculosis

SMILES	sensitivity of bioA TetON-1 compared to wild-type Mtb [1]	resistance relative to wild-type Mtb [2] [fold]
CO[C@H]1/C=C/O[C@@]2(C)Oc3c(C)c(O)c4c(O)c(c(/C=N/N5CCN(C)CC5)c(O)c4c3C2=O)NC(=O)/C(C)=C\C=C\[C@H](C)[C@H](O)[C@@H](C)[C@@H](O)[C@@H](C)[C@H](OC(C)=O)[C@@H]1C [rifampicin]	more sensitive than wild-type Mtb; also recorded: more resistant than wild-type Mtb	
Nc1ncnc2c1ncn2[C@@H]1O[C@H](CNS(=O)(=O)NC(=O)CCCC[C@@H]2SC[C@@H]3NC(=O)N[C@@H]32)[C@@H](O)[C@H]1O [Bio-AMS, 5′-[N-(d-biotinoyl)sulfamoyl]amino-5′-deoxyadenosine]		64
